Results as given in US20060286159A1 (priority 2003, published 2006).
Entries after “also recorded” stand apart in the source; their conditions may differ.

Key:
[1] = test system: Achilles tendinopathy (heels); assay: Three year follow-up study of the Achilles trial of Example 1; type: in vivo, human; conditions: for Night Pain—All Heels (mean adjusted for baseline) / Pain at Rest—All Heels (mean adjusted for baseline) / Pain With Activity—All Heels (mean adjusted for baseline) / Tenderness—All Heels (mean adjusted for baseline) / Hop Test—All Heels (mean adjusted for baseline): N=32; for Pain With Activity—All Heels (mean adjusted for baseline): scale 0-4; for Tenderness—All Heels (mean adjusted for baseline): scale 0-3; for Hop Test—All Heels (mean adjusted for baseline): pain score 0-10
Method: A three year follow-up study of the experiment presented in Example 1 was performed. […] Among the 52 patients in follow-up study ([…]), 15 had bilateral involvement (7 on the active patch and 8 on placebo). The results are presented in two sets. The follow-up study used the same outcome measures as were used in the original parent study.
The first set compares the results of the 68 heels and the second set results are shown for the 52 patients by averaging results for patients with bilateral involvement. Analyses were performed as analyses of covariance, with the baseline assessment as the covariate, to adjust the results for baseline differences. Mean results shown in Tables III-XIII below are adjusted for the baseline values.

[2] = test system: chronic extensor tendinopathy at the elbow; assay: Extensor tendinopathy (tennis elbow) clinical trial (randomized, double blind, placebo controlled)
[3] = test system: chronic overuse tendinopathies; assay: The three tendinopathy clinical trials taken together; type: in vivo, human
From the text: Three clinical trials were approved by an institutional Ethics Committee. Patients with clinical diagnoses of the specified tendinopathies were recruited through newspaper advertisements and private consulting rooms. All subjects were over 18 years of age, and gave written informed consent.
The patients were randomly allocated into two groups. […] The active and placebo patches were indistinguishable from one another. The randomization was controlled by the senior pharmacist at the institution who also supervised the packaging of transdermal patches and their distribution to patients. Both the patients and the clinical examiner were blinded as to which group the patients were in, i.e. double-blind.
Patients were instructed in the application of the patches at their initial visit. They were informed that the dosing regimen was one quarter of a transdermal patch to be applied daily to the skin area closest to the affected tendon. The patches were to be left in situ for 24 hours and then replaced with a new quarter patch. […] Patients were instructed to rotate the patch application site around this point with each new patch application for the six-month study duration in an effort to minimize application site irritation.
A single examiner assessed all patients and recorded information on clinical outcome measures. All clinical assessments were repeated at week 0, 2, 6, 12, and 24 with an identical format. Records of headaches, paracetamol use, and compliance with patch application and the tendon rehabilitation program were also made at these scheduled visits. Patients were excluded from the trials for non-compliance at any two visits.
Outcome measures were analyzed with Sigmastat 2.0 statistical software (Jandel Scientific, California, U.S.A) using Mann-Whitney rank sum tests to compare differences between groups, and using the Wilcoxon sign rank test to compare differences within the groups. The level of significance was defined at p=0.05. A Chi square analysis of patient reported symptom outcomes at week 24 was performed. Effect size estimates were calculated by dividing the mean z-score, calculated from all outcome measures at week 24, by the square root of the sample size to given a general measure of the overall effect of the patch on pain, tendon force and function.

[4] = 3 years, N=24, placebo 0.51, p=0.09
[5] = 24 weeks, N=24, placebo 0.86, p=0.09
[6] = GTN group, range over three trials
[7] = GTN groups, range over three trials

For `O=[N+]([O-])OCC(CO[N+](=O)[O-])O[N+](=O)[O-]` [glyceryl trinitrate, 1,2,3-propanetriol trinitrate], the “Night Pain—Average Result Used for Bilateral Patients” value ([1]; 3 years, N=24, placebo 0.29, p=0.06) was 0.07, the “Pain at Rest—Average Result Used for Bilateral Patients” value ([1]; 3 years, N=24, placebo 0.39, p=0.08) was 0.10 and the “Hop Test—Average Result Used for Bilateral Patients” value [1, 4] was 0.15. The “Pain With Activity—Average Result Used for Bilateral Patients” value [1, 4] was 0.15, the “Tenderness—Average Result Used for Bilateral Patients” value ([1]; 3 years, N=24, placebo 0.66, p=0.052) was 0.33 and the “RTS, %” value ([1]; 3 years, N=24, placebo 71.4%, p=0.16) was 87.5%. The “Night Pain—All Heels (mean adjusted for baseline)” value ([1]; 3 years, placebo 0.27, p=0.07) was 0.10, the “Pain at Rest—All Heels (mean adjusted for baseline)” value ([1]; 3 years, placebo 0.35, p=0.07) was 0.10 and the “Pain With Activity—All Heels (mean adjusted for baseline)” value ([1]; 3 years, placebo 0.50, p=0.059) was 0.16. For the same compound, the “Tenderness—All Heels (mean adjusted for baseline)” value ([1]; 3 years, placebo 0.66, p=0.031) was 0.35, the “Hop Test—All Heels (mean adjusted for baseline)” value ([1]; 3 years, placebo 0.96, p=0.07) was 0.36 and the “Night Pain—Average Result Used for Bilateral Patients” value ([1]; 24 weeks, N=24, placebo 0.34, p=0.11) was 0.15. The “Pain at Rest—Average Result Used for Bilateral Patients” value ([1]; 24 weeks, N=24, placebo 0.46, p=0.20) was 0.26, the “Hop Test—Average Result Used for Bilateral Patients” value [1, 5] was 0.44 and the “Pain With Activity—Average Result Used for Bilateral Patients” value [1, 5] was 0.44. For the same compound, the “Tenderness—Average Result Used for Bilateral Patients” value ([1]; 24 weeks, N=24, placebo 0.90, p=0.43) was 0.70, the “Night Pain—All Heels (mean adjusted for baseline)” value ([1]; 24 weeks, placebo 0.30, p=0.36) was 0.19 and the “Pain at Rest—All Heels (mean adjusted for baseline)” value ([1]; 24 weeks, placebo 0.41, p=0.35) was 0.29. For the same compound, the “Pain With Activity—All Heels (mean adjusted for baseline)” value ([1]; 24 weeks, placebo 0.78, p=0.22) was 0.52, the “Tenderness—All Heels (mean adjusted for baseline)” value ([1]; 24 weeks, placebo 0.83, p=0.49) was 0.69 and the “Hop Test—All Heels (mean adjusted for baseline)” value ([1]; 24 weeks, placebo 1.57, p=0.026) was 0.61. The “results of each assessment vs placebo” value ([1]; both at 24 weeks and at 3 years) was “numerically better results”, the “Headache (Days) Average” value ([2]; GTN group) was “GTN 5 Days” and the “Headache (Days) Median” value ([2]; GTN group) was “GTN 3 Days”. The “Headache (Days) Total” value ([2]; GTN group) was 136 days, the “Headache: percentage of patients” value ([2]; GTN group) was 63% and the “No Side Effects” value ([2]; GTN group) was “GTN 35%”. The “Other Noted Side-Effects: Increase Axillary Sweating” value ([2]; GTN group) was “Sweating 2%”, the “Pain Outcomes: elbow pain with activity vs placebo” value ([2]; Week 2 (p=0.01)) was “significant decrease; also recorded: Decreased” and the “Tenderness Outcomes: lateral epicondylar tenderness vs placebo” value ([2]; Week 6 (p=0.02) / 12 (p=0.02)) was “significant decreases; also recorded: significantly less; also recorded: Decreased”. For the same compound, the “Force Outcomes: ORI-TETS mean peak force vs placebo” value ([2]; Week 24 (p=0.03)) was “significant increase; also recorded: Increased Mean”, the “Force Outcomes: ORI-TETS mean total work vs placebo” value ([2]; Week 24 (p=0.03)) was “significant increase; also recorded: Increased Mean” and the “Other Noted Side-Effects: Rash” value ([2]; application site, GTN group) was “Rash 21%,”. The “number needed to treat (NNT)” value ([2]; excellent result at 24 weeks, Chi square p=0.005) was 4.8, the “Discontinuations: Headache” value ([2]; patients, all GTN group) was “Headache 2” and the “Discontinuations: Rash” value ([2]; patients, all GTN group) was “Rash 2,”. The “Paracetamol Average” value ([2]; used for headache, GTN group) was “GTN 8 tablets”, the “Paracetamol Median” value ([2]; used for headache, GTN group) was “GTN 4 tablets” and the “Paracetamol Total” value ([2]; used for headache, GTN group) was “GTN 214 tablets”. The “Improved Patient Outcomes” value ([2]; week 24, more patients asymptomatic with activities of daily living than placebo, 1.25 mg/24 h patch + rehabilitation) was 21%, the “patients with excellent improvement, patient reported” value ([2]; week 24, placebo 60%) was 81% and the “headache as a side-effect” value ([3]; GTN group) was “majority of patients”. For the same compound, the “average number of days of headache” value [3, 6] was 5 to 6 days, the “headache, patients” value [3, 6] was 53-76% and the “median number of days of headache” value [3, 6] was 3 to 4 days. The “headaches that occurred within the first two weeks of the trial” value ([3]; GTN groups) was 72%, the average paracetamol usage [3, 7] was 7-14 tablets and the median paracetamol usage [3, 7] was 2-10 tablets. For the same compound, the “patients that experienced no side-effects” value [3, 7] was 30-44%, the total paracetamol usage [3, 7] was 138-237 tablets and the “patients experiencing application site rash” value ([3]; GTN groups, range over three trials, placebo 7-12%) was 8-21%. The “tendon pain with activity vs placebo” value ([3]; all three trials, timing varied) was “significantly improved”, the “chance of being asymptomatic with activities of daily living vs placebo (Chi square)” value ([3]; at 24 weeks, all three clinical trials, p=0.001) was “significantly increased” and the “more patients than in the placebo group asymptomatic with activities of daily living (rated tendon excellent)” value ([3]; completion of the trials, range over three trials) was 21-29%. For the same compound, the “changes in patient success rates (binomial effect size displays)” value ([3]; equivalent to effect sizes at week 24) was 12-26%, the “other side-effects (increase in pre-existing tinnitus, ipsilateral axillary sweating, apprehension): severity and reversibility” value ([3]; human, in vivo) was “None of these were severe, and all were reversible on discontinuation of the medication” and the “severity of rash vs placebo” value ([3]; human, in vivo) was “greater severity of rash”. For the same compound, the “patients discontinued due to headache” value ([3]; in each clinical trial) was 1-2 patients, the “severity of headaches vs placebo” value ([3]; in general) was “more severe headaches” and the “patients discontinued during the trials” value ([3]; of clinical trial patients, all in GTN groups, headache or application site rash) was 4-6%. For the same compound, the “patients discontinued due to rash, total” value ([3]; three trials) was “five”, the “patients discontinued for recurrent facial flushing” value ([3]; type 2 diabetic, reversible on discontinuation) was “One” and the “decrease of patient-rated pain scores, range over the trials” value ([3]; week 0 compared with week 24) was 64-67%. The “increase of force outcome measures, range over the trials” value ([3]; week 0 compared with week 24) was 33-38%, the “increase of force outcome measures, average” value ([3]; week 0 compared with week 24, placebo […]%) was 37% and the “decrease of patient-rated pain scores (with activity, at night, at rest), average” value ([3]; week 0 compared with week 24, placebo 30%) was 65%. The “force outcome measures vs placebo” value ([3]; week 24, all three trials) was “significant increases” and the “mean estimated effect sizes” value ([3]; week 24, range over three trials) was 0.12-0.26.
